Patent publication US20220363686A1 (AiCuris GmbH & Co. KG, priority 2018, published 2022)

Assays:
HBV = assay: Determination of HBV DNA from the supernatants of HepAD38 cells (anti-HBV activity); assay type: cell-based, hepatitis B virus; details: Hepatitis B virus, HePAD38, 144 h, HBV DNA in HepAD38 supernatant, day 6, qPCR; read-out: Cell Activity
Method: The anti-HBV activity was analysed in the stable transfected cell line HepAD38, which has been described to secrete high levels of HBV virion particles (Ladner et al., 1997). In brief, HepAD38 cells were cultured at 37° C. at 5% CO2 and 95% humidity in 200 μl maintenance medium, which was Dulbecco's modified Eagle's medium/Nutrient Mixture F-12 (Gibco, Karlsruhe), 10% fetal bovine serum (PAN Biotech Aidenbach) supplemented with 50 μg/ml penicillin/streptomycin (Gibco, Karlsruhe), 2 mM L-glutamine (PAN Biotech, Aidenbach), 400 μg/ml G418 (AppliChem, Darmstadt) and 0.3 μg/ml tetracycline. Cells were subcultured once a week in a 1:5 ratio, but were usually not passaged more than ten times. For the assay 60,000 cells were seeded in maintenance medium without any tetracycline into each well of a 96-well plate and treated with serial half-log dilutions of test compound. To minimize edge effects the outer 36 wells of the plate were not used but were filled with assay medium. On each assay plate six wells for the virus control (untreated HepAD38 cells) and six wells for the cell control (HepAD38 cells treated with 0.3 μg/ml tetracycline) were allocated, respectively. In addition, one plate set with reference inhibitors like BAY 41-4109, entecavir, and lamivudine instead of screening compounds were prepared in each experiment. In general, experiments were performed thrice in triplicates. At day 6 HBV DNA from 100 μl filtrated cell culture supernatant (AcroPrep Advance 96 Filter Plate, […] Supor membran, PALL GmbH, Dreieich) was automatically purified on the MagNa Pure LC instrument using the MagNA Pure 96 DNA and Viral NA Small Volume Kit (Roche Diagnostics, Mannheim) according to the instructions of the manufacturer. EC50 values were calculated from relative copy numbers of HBV DNA In brief, 5 μl of the 100 μl eluate containing HBV DNA were subjected to PCR LC480 Probes Master Kit (Roche) together with 1 μM antisense primer […], 0.5 μM sense primer […], 0.3 μM hybprobes […]-FL and LC640-[…]-PH (TIBMolBiol, Berlin) to a final volume of 12.5 μl. The PCR was performed on the Light Cycler 480 real time system (Roche Diagnostics, Mannheim) using the following protocol: Pre-incubation for 1 min at 95° C., amplification: 40 cycles×(10 sec at 95° C., 50 sec at 60° C., 1 sec at 70° C.), cooling for 10 sec at 40° C. Viral load was quantitated against known standards using HBV plasmid DNA of pCH-9/3091 (Nassal et al., 1990, Cell 63: 1357-1363) and the LightCycler 480 SW 1.5 software (Roche Diagnostics, Mannheim) and ECso values were calculated using non-linear regression with GraphPad Prism 6 (GraphPad Software Inc., La Jolla, USA).

[1] = Cell viability assay (AlamarBlue); details: human, HepAD38 cells
[2] = biological target: HBV core protein (C-terminal truncated core protein containing 149 amino acids of the N-terminal assembly domain) (UniProt P03146); assay: Biochemical capsid assembly assay (fluorescence quenching); parameters: rows headed: Assembly Activity; other: BODIPY-FL labelled core protein, assembly started with NaCl, read after 6 min; details: read-out: Assembly Activity; BODIPY-FL labelled core protein, assembly started with NaCl, read after 6 min
Method: The screening for assembly effector activity was done based on a fluorescence quenching assay published by Zotnick et al. (2007). The C-terminal truncated core protein containing 149 amino acids of the N-terminal assembly domain fused to a unique cysteine residue at position 150 and was expressed in E. coli using the pET expression system (Merck Chemicals, Darmstadt). Purification of core dimer protein was performed using a sequence of size exclusion chromatography steps. In brief, the cell pellet from 1 L BL21 (DE3) Rosetta2 culture expressing the coding sequence of core protein cloned NdeI/XhoI into expression plasmid pET21b was treated for 1 h on ice with a native lysis buffer (Qproteome Bacterial Protein Prep Kit; Qiagen, Hilden). After a centrifugation step the supernatant was precipitated during 2 h stirring on ice with 0.23 g/ml of solid ammonium sulfate. Following further centrifugation the resulting pellet was resolved in buffer A (100 mM Tris, pH 7.5; 100 mM NaCl; 2 mM DTT) and was subsequently loaded onto a buffer A equilibrated CaptoCore 700 column (GE HealthCare, Frankfurt). The column flow through containing the assembled HBV capsid was dialyzed against buffer N (50 mM NaHCO3 pH 9.6; 5 mM DTT) before urea was added to a final concentration of 3M to dissociate the capsid into core dimers for 1.5 h on ice. The protein solution was then loaded onto a IL Sephacryl S300 column. After elution with buffer N core dimer containing fractions were identified by SDS-PAGE and subsequently pooled and dialyzed against 50 mM HEPES pH 7.5; 5 mM DTT. To improve the assembly capacity of the purified core dimers a second round of assembly and disassembly starting with the addition of 5 M NaCl and including the size exclusion chromatography steps described above was performed. From the last chromatography step core dimer containing fractions were pooled and stored in aliquots at concentrations between 1.5 to 2.0 mg/ml at −80° C.
Immediately before labelling the core protein was reduced by adding freshly prepared DTT in a final concentration of 20 mM. After 40 min incubation on ice storage buffer and DTT was removed using a Sephadex G-25 column (GE HealthCare, Frankfurt) and 50 mM HEPES, pH 7.5. For labelling 1.6 mg/ml core protein was incubated at 4° C. and darkness overnight with BODIPY-FL maleimide (Invitrogen, Karlsruhe) in a final concentration of 1 mM. After labelling the free dye was removed by an additional desalting step using a Sephadex G-25 column. Labelled core dimers were stored in aliquots at 4° C. In the dimeric state the fluorescence signal of the labelled core protein is high and is quenched during the assembly of the core dimers to high molecular capsid structures. The screening assay was performed in black 384 well microtiter plates in a total assay volume of 10 μl using 50 mM HEPES pH 7.5 and 1.0 to 2.0 μM labelled core protein. Each screening compound was added in 8 different concentrations using a 0.5 log-unit serial dilution starting at a final concentration of 100 μM, 31.6 μM or 10 μM, In any case the DMSO concentration over the entire microtiter plate was 0.5%. The assembly reaction was started by the injection of NaCl to a final concentration of […] which induces the assembly process to approximately 25% of the maximal quenched signal. 6 min after starting the reaction the fluorescence signal was measured using a Clariostar plate reader (BMG Labtech, Ortenberg) with an excitation of 477 nm and an emission of 525 nm. As 100% and 0% assembly control HEPES buffer containing 2.5 M and 0 M NaCl was used. Experiments were performed thrice in triplicates. EC50 values were calculated by non-linear regression analysis using the Graph Pad Prism 6 software (GraphPad Software, La Jolla, USA).

Chain of HBV core protein (C-terminal truncated core protein containing 149 amino acids of the N-terminal assembly domain) (P03146 whole entry, the tested form may be a part): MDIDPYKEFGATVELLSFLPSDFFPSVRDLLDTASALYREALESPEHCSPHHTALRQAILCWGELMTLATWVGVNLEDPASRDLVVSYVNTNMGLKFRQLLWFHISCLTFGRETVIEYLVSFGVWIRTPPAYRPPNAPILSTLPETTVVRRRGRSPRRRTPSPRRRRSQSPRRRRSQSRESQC

CC1Cn2ncc(C(=O)N(C)C3CC3)c2CN1C(=O)c1cc2ccccc2[nH]1 (racemic) [Example 2, N-cyclopropyl-5-(1H-indole-2-carbonyl)-N,6-dimethyl-4H,5H,6H,7H-pyrazolo[1,5-a]pyrazine-3-carboxamide]
EC50 (HBV): < 1 µM
CC50 at 6 days [1]: > 10 µM
IC50 [2]: < 5 µM

CC1Cn2ncc(C(=O)NC3(COC(F)F)CC3)c2CN1C(=O)c1cc2ccccc2[nH]1 (racemic) [Example 130, N-{1-[(difluoromethoxy)methyl]cyclopropyl}-5-(1H-indole-2-carbonyl)-6-methyl-4H,5H,6H,7H-pyrazolo[1,5-a]pyrazine-3-carboxamide]
EC50 (HBV): < 1 µM
CC50 at 6 days [1]: > 10 µM
IC50 [2]: < 5 µM

COCC1(N(C)C(=O)c2cnn3c2CN(C(=O)c2cc4ccccc4[nH]2)C(C)C3)CC1 (single isomer, unassigned) [Example 17, 5-(1H-indole-2-carbonyl)-N-[1-(methoxymethyl)cyclopropyl]-N,6-dimethyl-4H,5H,6H,7H-pyrazolo[1,5-a]pyrazine-3-carboxamide]
EC50 (HBV): < 1 µM
CC50 at 6 days [1]: > 10 µM
IC50 [2]: 5 to 10 µM

CC1Cn2ncc(C(=O)N(C)C3CC3)c2CN1C(=O)c1cc2ccccc2[nH]1 (single isomer, unassigned) [Example 18, N-cyclopropyl-5-(1H-indole-2-carbonyl)-N,6-dimethyl-4H,5H,6H,7H-pyrazolo[1,5-a]pyrazine-3-carboxamide]
EC50 (HBV): 1 to 10 µM
CC50 at 6 days [1]: > 10 µM
IC50 [2]: < 100 µM

CC1Cn2ncc(C(=O)NC3(COC(F)F)CC3)c2CN1C(=O)c1cc2ccccc2[nH]1 (single isomer, unassigned) [Example 131, N-{1-[(difluoromethoxy)methyl]cyclopropyl}-5-(1H-indole-2-carbonyl)-6-methyl-4H,5H,6H,7H-pyrazolo[1,5-a]pyrazine-3-carboxamide]
EC50 (HBV): < 1 µM
CC50 at 6 days [1]: > 10 µM
IC50 [2]: < 5 µM

COCC1(N(C)C(=O)c2cnn3c2CN(C(=O)c2cc4ccccc4[nH]2)C(C)C3)CC1 (stereo not drawn) [Example 1, 5-(1H-indole-2-carbonyl)-N-[1-(methoxymethyl)cyclopropyl]-N,6-dimethyl-4H,5H,6H,7H-pyrazolo[1,5-a]pyrazine-3-carboxamide]
EC50 (HBV): < 1 µM
CC50 at 6 days [1]: > 10 µM
IC50 [2]: < 5 µM

O=C(c1cc2c(F)c(F)ccc2[nH]1)N1CCn2ncc(C3CCC3)c2C1 [Example 3, 2-{3-cyclobutyl-4H,5H,6H,7H-pyrazolo[1,5-a]pyrazine-5-carbonyl}-4,5-difluoro-1H-indole]
EC50 (HBV): < 1 µM
CC50 at 6 days [1]: > 10 µM
IC50 [2]: < 5 µM

Cc1cc(F)cc2[nH]c(C(=O)N3CCn4ncc(C5CCC5)c4C3)cc12 [Example 4, 2-{3-cyclobutyl-4H,5H,6H,7H-pyrazolo[1,5-a]pyrazine-5-carbonyl}-6-fluoro-4-methyl-1H-indole]
EC50 (HBV): < 1 µM
CC50 at 6 days [1]: > 10 µM
IC50 [2]: < 5 µM

O=C(c1cc2ccccc2[nH]1)N1CCn2ncc(S(=O)(=O)N3CCC(F)(F)CC3)c2C1 [Example 34, 2-{3-[(4,4-difluoropiperidin-1-yl)sulfonyl]-4H,5H,6H,7H-pyrazolo[1,5-a]pyrazine-5-carbonyl}-1H-indole]
EC50 (HBV): < 1 µM
CC50 at 6 days [1]: > 10 µM

O=C(c1cc2c(Cl)cccc2[nH]1)N1CCn2ncc(C(=O)N3CCC(F)(F)C3)c2C1 [Example 99, 4-chloro-2-[3-(3,3-difluoropyrrolidine-1-carbonyl)-4H,5H,6H,7H-pyrazolo[1,5-a]pyrazine-5-carbonyl]-1H-indole]
EC50 (HBV): < 1 µM
CC50 at 6 days [1]: > 10 µM

O=C(c1cc2c(Cl)cc(F)cc2[nH]1)N1CCn2ncc(C(=O)N3CCC(F)(F)C3)c2C1 [Example 140, 4-chloro-2-[3-(3,3-difluoropyrrolidine-1-carbonyl)-4H,5H,6H,7H-pyrazolo[1,5-a]pyrazine-5-carbonyl]-6-fluoro-1H-indole]
EC50 (HBV): < 1 µM
CC50 at 6 days [1]: > 10 µM
